According to US11857596B2, “Animal feed additive and animal feed” (priority 2018, dated 2024):
Converted amounts (≈) assume the structure as drawn. Where two headings read alike, the source gives them in different places. Residues, ends and D or L forms follow the SMILES beside them.

Columns and labels:
[1] = test system: Lactobacillus salivarius AJ110152; assay: Minimum inhibitory concentration, spot-on-lawn method; assay type: cell-based; settings: for MIC: Ligilactobacillus salivarius
[2] = test system: Salmonella enterica AJ2785; assay: microbe, parasite or virus in culture; assay type: cell-based; settings: for MIC: Salmonella enterica, AJ2785, read-out: Minimum inhibitory concentration
[3] = test system: Bacteroides fragilis JCM11019; assay: Minimum inhibitory concentration, spot-on-lawn method; assay type: cell-based
[4] = test system: Clostridium perfringens AJ3350; assay: microbe, parasite or virus in culture; assay type: cell-based; settings: for MIC: Clostridium perfringens, AJ3350, read-out: Minimum inhibitory concentration; for Minimum inhibitory concentration: indicator strain Clostridium perfringens AJ3350, GAM, 37° C.
[5] = test system: Lactobacillus acidophilus AJ13778; assay: Minimum inhibitory concentration, spot-on-lawn method; assay type: cell-based
[6] = test system: Bifidobacterium thermophilum AJ110569; assay: as above; assay type: cell-based
[7] = test system: Caco-2 cells (human intestinal epithelial cells); assay: Membrane strengthening experiment (TER recovery of barrier function after TNF-α); assay type: cell-based; settings: for function of strengthening the barrier function (membrane-strengthening ability): result in words, FIG. 1A-1H
[8] = test system: Enterococcus faecalis AJ110149; assay: Minimum inhibitory concentration, spot-on-lawn method; assay type: cell-based
Escherichia coli MG1665 = assay: as above; assay type: cell-based
[9] = Chicken growth test (body weight gain and feed conversion ratio); assay type: in vivo, broiler chickens; settings: 0-3 weeks
[10] = Homo sapiens, Caco-2, 24 h, read-out: Recovery ratio (%)
[11] = material conc. 1 uM, comparison value with Ctr (TNFα alone), 24 h
[12] = Escherichia coli, MG1665, read-out: Minimum inhibitory concentration
[13] = indicator strain Lactobacillus salivarius AJ110152, MRS, 37° C., read-out: Minimum inhibitory concentration
[14] = indicator strain Bacteroides fragilis JCM11019, GAM, 37° C., read-out: Minimum inhibitory concentration
[15] = indicator strain Lactobacillus acidophilus AJ13778, MRS, 37° C., read-out: Minimum inhibitory concentration
[16] = indicator strain Bifidobacterium thermophilum AJ110569, GAM, 37° C., read-out: Minimum inhibitory concentration
[17] = material conc. 10 uM, comparison value with Ctr (TNFα alone), 24 h, 1.1 or more = membrane-strengthening ability
[18] = indicator strain Enterococcus faecalis AJ110149, MRS, 30° C., ND = no effect detected, read-out: Minimum inhibitory concentration
[19] = indicator strain Escherichia coli MG1665, LB, 37° C., read-out: Minimum inhibitory concentration
[20] = indicator strain Lactobacillus salivarius AJ110152, MRS, 37° C.
[21] = Table 3, addition 10 ppm in feed, negative control = 100
[22] = Table 4, addition 10 ppm in feed
[23] = Table 6, addition 10 ppm, NC = 100%, listed as PC1 (W/Avilamycin)
[24] = Table 6, addition 10 ppm, NC = 100%, listed as PC2 (W/Avilamycin)
[25] = indicator strain Bacteroides fragilis JCM11019, GAM, 37° C.
[26] = indicator strain Lactobacillus acidophilus AJ13778, MRS, 37° C.
[27] = indicator strain Bifidobacterium thermophilum AJ110569, GAM, 37° C.
[28] = material conc. 10 uM, TER barrier function recovery, 24 h
[29] = indicator strain Enterococcus faecalis AJ110149, MRS, 30° C., ND = no effect detected
[30] = indicator strain Escherichia coli MG1665, LB, 37° C.

## CC[C@@H](C(=O)[C@@H](C)[C@@H](O)[C@H](C)[C@@H]1O[C@@H]([C@@H](CC)C(=O)O)CC[C@@H]1C)[C@H]1O[C@]2(C=C[C@@H](O)[C@]3(CC[C@@](C)([C@H]4CC[C@](O)(CC)[C@H](C)O4)O3)O2)[C@H](C)C[C@@H]1C [Salinomycin]
[1]; AJ110152, read-out: Minimum inhibitory concentration
  MIC: 1000 µg/mL (≈ 1.33 mM)
[2]
  MIC: > 100000 µg/mL
[3]; Bacteroides fragilis, JCM11019, read-out: Minimum inhibitory concentration
  MIC: 64000 µg/mL (≈ 85.2 mM)
[4]
  MIC: 1000 µg/mL (≈ 1.33 mM)
[5]; Lactobacillus acidophilus, AJ13778, read-out: Minimum inhibitory concentration
  MIC: 2000 µg/mL (≈ 2.66 mM)
[6]; Bifidobacterium thermophilum, AJ110569, read-out: Minimum inhibitory concentration
  MIC: 2000 µg/mL (≈ 2.66 mM)
[7]; [10]
  activity at 1 µM: 124%
[7]; [11]
  Recovery ratio/ctr: 1.10
[8]; Enterococcus faecalis, AJ110149, read-out: Minimum inhibitory concentration
  MIC: 500 µg/mL (≈ 0.666 mM)
Escherichia coli MG1665; [12]
  MIC: > 100000 µg/mL

## CC[C@H]1OC(=O)C[C@@H](O)[C@H](C)[C@@H](O[C@@H]2O[C@H](C)[C@@H](O[C@H]3C[C@@](C)(O)[C@@H](O)[C@H](C)O3)[C@H](N(C)C)[C@H]2O)[C@@H](CC=O)C[C@@H](C)C(=O)/C=C/C(C)=C/[C@@H]1CO[C@@H]1O[C@H](C)[C@@H](O)[C@@H](OC)[C@H]1OC [Tylosin]
[1]; [13]
  MIC: 1000 µg/mL (≈ 1.09 mM)
[2]
  MIC: > 100000 µg/mL
[3]; [14]
  MIC: 4000 µg/mL (≈ 4.37 mM)
[4]
  MIC: 4000 µg/mL (≈ 4.37 mM)
[5]; [15]
  MIC: 1000 µg/mL (≈ 1.09 mM)
[6]; [16]
  MIC: 10 µg/mL (≈ 0.0109 mM)
[7]; Homo sapiens, Caco-2, material conc. 10 uM, TER barrier function recovery, 24 h, read-out: Recovery ratio (%)
  activity at 10 µM: 135%
[7]; [17]
  Recovery ratio/ctr: 1.17
[8]; [18]
  MIC: 4000 µg/mL (≈ 4.37 mM)
Escherichia coli MG1665; [19]
  MIC: > 100000 µg/mL

## CN(C)[C@@H]1C(O)=C(C(N)=O)C(=O)[C@@]2(O)C(O)=C3C(=O)c4c(O)ccc(Cl)c4[C@@](C)(O)[C@H]3C[C@@H]12 [Chlortetracycline]
[1]; [13]
  MIC: 3000 µg/mL (≈ 6.26 mM)
[2]
  MIC: 50000 µg/mL (≈ 104 mM)
[3]; [14]
  MIC: 4000 µg/mL (≈ 8.35 mM)
[4]
  MIC: 62 µg/mL (≈ 0.129 mM)
[5]; [15]
  MIC: 4000 µg/mL (≈ 8.35 mM)
[6]; [16]
  MIC: 16000 µg/mL (≈ 33.4 mM)
Escherichia coli MG1665; [19]
  MIC: 50000 µg/mL (≈ 104 mM)

## COc1cc(/C=C/C(=O)CC(=O)/C=C/c2ccc(O)c(OC)c2)ccc1O [Curcumin, curcumin]
[7]; Homo sapiens, Caco-2, material conc. 200 uM, TER barrier function recovery, 24 h, read-out: Recovery ratio (%)
  activity at 200 µM: 128%
[7]; material conc. 200 uM, comparison value with Ctr (TNFα alone), 24 h
  Recovery ratio/ctr: 1.14

## CC(C)[C@H](N)C(=O)O [Valine, valine]
[7]; 24 h, 200 µM
  Recovery ratio/ctr: 1.13
[7]; Homo sapiens, Caco-2, material conc. 0.2 mM, TER barrier function recovery, 24 h, read-out: Recovery ratio (%)
  activity at 200 µM: 130%

## COC[C@H]1O[C@@H](OC2OC[C@@H]3O[C@]4(O[C@H]3[C@H]2OC(=O)C(C)C)O[C@H](C)[C@@](O)(C(C)=O)[C@@H]2OCO[C@H]24)[C@@H](OC)[C@@H](O)[C@@H]1O[C@@H]1O[C@H](C)[C@H](OC)[C@H](O[C@H]2C[C@@]3(C)OC4(C[C@@H](O)[C@H](O[C@H]5C[C@@H](O)[C@H](OC(=O)c6c(C)c(Cl)c(O)c(Cl)c6OC)[C@@H](C)O5)[C@@H](C)O4)O[C@@H]3[C@@H](C)O2)[C@H]1O (some centres unmarked) [Avilamycin, avilamycin]
[1]; [20]
  Minimum inhibitory concentration: 8000 µg/mL (≈ 5.7 mM)
[9]; [21]
  BWG: 110%
  FCR: 96%
[9]; [22]
  BWG: 107%
  FCR: 95%
[9]; [23]
  BWG: 104%
  FCR: 97%
[9]; [24]
  BWG: 107%
  FCR: 94%
[2]
  Minimum inhibitory concentration: >100000 µg/mL
[3]; [25]
  Minimum inhibitory concentration: 8000 µg/mL (≈ 5.7 mM)
[4]
  Minimum inhibitory concentration: 1000 µg/mL (≈ 0.712 mM)
[5]; [26]
  Minimum inhibitory concentration: 16000 µg/mL (≈ 11.4 mM)
[6]; [27]
  Minimum inhibitory concentration: 16000 µg/mL (≈ 11.4 mM)
[7]; [28]
  Recovery ratio (%): 127%
[7]; [17]
  Recovery ratio/ctr: 1.10
[7]
  function of strengthening the barrier function (membrane-strengthening ability): had a function of strengthening the barrier function even at a low concentration
[8]; [29]
  Minimum inhibitory concentration: 2000 µg/mL (≈ 1.42 mM)
Escherichia coli MG1665; [30]
  Minimum inhibitory concentration: >100000 µg/mL

## CC1=C(/C=C/C(C)=C/C=C/C(C)=C/C=C/C=C(C)/C=C/C=C(C)/C=C/C2=C(C)C(=O)[C@@H](O)CC2(C)C)C(C)(C)C[C@H](O)C1=O [Astaxanthin, astaxanthin]
[7]; Homo sapiens, Caco-2, material conc. 10 mg/L, TER barrier function recovery, 24 h, read-out: Recovery ratio (%)
  activity at 10 µg/mL: 132%
[7]; material conc. 10 mg/L, comparison value with Ctr (TNFα alone), 24 h
  Recovery ratio/ctr: 1.14
[7]
  function of strengthening the barrier function (membrane-strengthening ability): observed to have the function of strengthening the barrier function

## NC(=O)CC[C@H](N)C(=O)O [Glutamine, glutamine]
[7]; Homo sapiens, Caco-2, material conc. 20 mM, TER barrier function recovery, 24 h, read-out: Recovery ratio (%)
  activity at 20000 µM: 136%
[7]; material conc. 20 mM, comparison value with Ctr (TNFα alone), 24 h
  Recovery ratio/ctr: 1.18

## N[C@@H](Cc1c[nH]c2ccccc12)C(=O)O [Tryptophan, tryptophan]
[7]; [10]
  activity at 4000 µM: 128%
[7]; material conc. 4 mM, comparison value with Ctr (TNFα alone), 24 h
  Recovery ratio/ctr: 1.11

## CCCC(=O)O [Butylate, butyric acid]
[7]; Homo sapiens, Caco-2, material conc. 2.0 mM, TER barrier function recovery, 24 h, read-out: Recovery ratio (%)
  activity at 2000 µM: 131%
[7]; material conc. 2.0 mM, comparison value with Ctr (TNFα alone), 24 h
  Recovery ratio/ctr: 1.13

## CC[C@H](C)[C@H](N)C1=N[C@H](C(=O)N[C@@H](CC(C)C)C(=O)N[C@H](CCC(=O)O)C(=O)N[C@H](C(=O)N[C@H]2CCCCNC(=O)[C@H](CC(N)=O)NC(=O)[C@@H](CC(=O)O)NC(=O)[C@H](Cc3cnc[nH]3)NC(=O)[C@@H](Cc3ccccc3)NC(=O)[C@H]([C@@H](C)CC)NC(=O)[C@@H](CCCN)NC2=O)[C@@H](C)CC)CS1 [Bacitracin] (HELM PEPTIDE1{[CC[C@H](C)[C@H](N)C1=N[C@H](C(=O)[*:2])CS1].L.[dE].I.K.[NCCC[C@@H](N[*:1])C(=O)[*:2]].I.[dF].H.[dD].N}$PEPTIDE1,PEPTIDE1,5:R3-11:R2$$$V2.0)
[1]; [13]
  MIC: 32000 µg/mL (≈ 22.5 mM)
[2]
  MIC: > 100000 µg/mL
[3]; [14]
  MIC: > 100000 µg/mL
[5]; [15]
  MIC: 32000 µg/mL (≈ 22.5 mM)
[6]; [16]
  MIC: 4000 µg/mL (≈ 2.81 mM)
Escherichia coli MG1665; [12]
  MIC: > 100000 µg/mL

## O=C(O)C(O)Cc1ccccc1 (centres unmarked) [Phenyl-lactate, phenyl lactatic acid]
[7]; material conc. 0.2 mM, TER barrier function recovery, 24 h
  Recovery ratio (%): 129%
[7]; material conc. 0.2 mM, comparison value with Ctr (TNFα alone), 24 h
  Recovery ratio/ctr: 1.12

## Colistin
[1]; [20]
  Minimum inhibitory concentration: >100000 µg/mL
[2]
  Minimum inhibitory concentration: >100000 µg/mL
[3]; [25]
  Minimum inhibitory concentration: >100000 µg/mL
[4]
  Minimum inhibitory concentration: >100000 µg/mL
[5]; [26]
  Minimum inhibitory concentration: >100000 µg/mL
[6]; [27]
  Minimum inhibitory concentration: 128000 µg/mL
[7]; material conc. 1 uM, TER barrier function recovery, 24 h
  Recovery ratio (%): 130%
[7]; [11]
  Recovery ratio/ctr: 1.13
[7]
  function of strengthening the barrier function (membrane-strengthening ability): had a function of strengthening the barrier function even at a low concentration
[8]; [29]
  Minimum inhibitory concentration: >100000 µg/mL
Escherichia coli MG1665; [30]
  Minimum inhibitory concentration: 4000 µg/mL

## Zinc Bacitracin
[7]; [28]
  Recovery ratio (%): 124%
[7]; [17]
  Recovery ratio/ctr: 1.10

## CC[C@@]1([C@@H]2O[C@@H]([C@H]3O[C@@](O)(CO)[C@H](C)C[C@@H]3C)C[C@@H]2C)CC[C@H]([C@]2(C)CC[C@]3(C[C@H](O)[C@@H](C)[C@@H]([C@@H](C)[C@@H](OC)[C@H](C)C(=O)O)O3)O2)O1 [Monensin]
[1]; [13]
  MIC: 1000 µg/mL (≈ 1.49 mM)
[2]
  MIC: > 100000 µg/mL
[4]
  MIC: 1000 µg/mL (≈ 1.49 mM)
[5]; [15]
  MIC: 2000 µg/mL (≈ 2.98 mM)
[6]; [16]
  MIC: 2000 µg/mL (≈ 2.98 mM)
[7]; Homo sapiens, Caco-2, material conc. 1 uM, TER barrier function recovery, 24 h, read-out: Recovery ratio (%)
  activity at 1 µM: 126%
[7]; [11]
  Recovery ratio/ctr: 1.13
[8]; [18]
  MIC: 2000 µg/mL (≈ 2.98 mM)
Escherichia coli MG1665; [12]
  MIC: > 100000 µg/mL
